In PubChem BioAssay (NCI):
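Where inhibition never reached the appropriate level, the endpoint shown equals the highest concentration tested. Otherwise, values were interpolated linearly from a five-concentration, 48-hour dose response in 96-well plates. TGI: total growth inhibition.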 Where a SMILES comes first, the peptide text is derived from it. [ ]: non-standard residue; d: D form. The star is where a group is joined. Cbz = O=C(OCc1ccccc1)*; Aib = CC(C)(N)C(=O)O

What was measured:
Test in all cases: NCI tumour cell line growth inhibition, 48 h
[1] = tested on: SNB-19 CNS
[2] = tested on: A549 NSCLC
[3] = tested on: CCRF-CEM leukemia
[4] = tested on: NCI-H23 lung
[5] = tested on: SK-MEL-28 melanoma
[6] = tested on: NCI-H226 lung
[7] = tested on: HCT-116 colon
[8] = tested on: KM20L2 colon
[9] = tested on: ACHN renal
[10] = tested on: HOP-18 NSCLC
[11] = tested on: M19-MEL melanoma
[12] = tested on: MDA-MB-231 breast
[13] = tested on: T-47D breast

SMILES | TGI [1] | TGI [2] | TGI [3] | TGI [4] | TGI [5] | TGI [6] | TGI [7] | TGI [8] | TGI [9] | TGI [10] | TGI [11] | TGI [12] | TGI [13]
OC(CCl)CN1CC[N+]2(CC1)CC[N+]1(CCN(CC(O)CCl)CC1)CC2 (stereo unspecified) | > 50 µM | > 50 µM | > 50 µM | > 50 µM | > 50 µM | > 50 µM | > 50 µM | > 50 µM | > 50 µM | > 50 µM | > 50 µM | – | –
Cc1ccc(S(=O)(=O)N/N=C\c2c3ccccc3[n+](C)c3ccccc23)cc1 | 75.1 µM | > 100 µM | 44.2 µM | > 100 µM | > 100 µM | 60.1 µM | > 100 µM | > 100 µM | > 100 µM | – | > 100 µM | – | –
Nc1ncc2c(n1)-c1ccccc1OC2 | > 100 µM | > 100 µM | > 100 µM | > 100 µM | > 100 µM | > 100 µM | > 100 µM | > 100 µM | – | > 100 µM | > 100 µM | – | –
COc1ccc(C2=NN(c3nsc4ccccc34)C(=O)CC2)cc1 | > 100 µM | > 100 µM | > 100 µM | > 100 µM | > 100 µM | – | > 100 µM | > 100 µM | > 100 µM | > 100 µM | > 100 µM | – | –
CSc1nc(-c2ccccc2)nc(=[N+]2CCOCC2)s1 | > 100 µM | > 100 µM | 62.6 µM | > 100 µM | > 100 µM | > 100 µM | > 100 µM | > 100 µM | > 100 µM | > 100 µM | > 100 µM | – | –
CC(C)(NC(=O)C(C)(C)NC(=O)OCc1ccccc1)C(=O)O (Cbz-[Aib]-[Aib]-OH) | > 100 µM | > 100 µM | > 100 µM | > 100 µM | > 100 µM | > 100 µM | > 100 µM | – | > 100 µM | – | – | > 100 µM | > 100 µM
COc1cccc(N(CN2C(=O)CCC2OC)C(C)=O)c1 (stereo unspecified) | > 100 µM | > 100 µM | > 100 µM | > 100 µM | > 100 µM | > 100 µM | > 100 µM | – | > 100 µM | – | – | > 100 µM | > 100 µM
O=C1Nc2ccccc2SC1=C(C(=O)c1ccccc1)C(=O)c1ccccc1 | > 100 µM | > 100 µM | 77.4 µM | > 90.8 µM | > 100 µM | > 87.5 µM | > 100 µM | – | > 100 µM | – | – | > 92.8 µM | > 100 µM
CC1=C(C(=O)NCc2ccccc2)C(c2ccco2)C(C(=O)NCc2ccccc2)=C(C)N1 | > 100 µM | > 100 µM | > 100 µM | > 100 µM | > 100 µM | > 100 µM | > 100 µM | > 100 µM | > 100 µM | > 100 µM | – | – | –
O=[N+]([O-])c1ccc(Nc2cccc3c2[nH]c2c(-c4ccccc4)nccc23)c([N+](=O)[O-])c1 | > 100 µM | > 100 µM | > 100 µM | > 100 µM | > 100 µM | > 100 µM | > 100 µM | > 100 µM | – | > 100 µM | > 100 µM | – | –
CCOC(=O)C1CCCN1C(=O)c1ccccc1Cl (stereo unspecified) | > 100 µM | > 100 µM | > 100 µM | > 100 µM | > 100 µM | > 100 µM | > 100 µM | – | > 100 µM | – | – | > 100 µM | > 100 µM
O=c1[nH]c2ccc(C(F)(F)F)cc2nc1C(F)(F)F | > 100 µM | > 100 µM | 42.7 µM | 46.9 µM | > 100 µM | 89 µM | 60.7 µM | – | > 100 µM | – | – | 96.5 µM | 45.9 µM
O=NNc1c[nH]c(=O)[nH]c1=O | > 100 µM | > 100 µM | > 100 µM | > 100 µM | > 100 µM | > 100 µM | > 100 µM | – | > 100 µM | – | – | > 100 µM | > 100 µM
CCCCOc1ccc(S(=O)(=O)/N=C(\NO)Nc2ccc(Cl)cc2)cc1 | 30.5 µM | 30.5 µM | 62.1 µM | 29.4 µM | 36.1 µM | 43.4 µM | 30.6 µM | – | 28.2 µM | – | – | 33.9 µM | 26.2 µM
Cn1c2ccccc2c2c3c(c4c5ccccc5n(C)c4c21)C(=O)N(c1ccccc1)C3=O | > 100 µM | > 100 µM | > 100 µM | > 100 µM | > 100 µM | > 100 µM | > 100 µM | – | > 100 µM | – | – | > 100 µM | > 100 µM
CCCCCCCCCCCCCCCCCCNc1nc(=O)n(C2CC(OP(=O)(O)OCC3OC(n4cc(F)c(=O)[nH]c4=O)CC3O)C(CO)O2)cc1F (stereo unspecified) | 30.3 µM | > 100 µM | 42.7 µM | > 100 µM | > 100 µM | > 100 µM | > 100 µM | – | > 100 µM | – | – | > 100 µM | > 100 µM
O=C(O)c1cccc(S(=O)(=O)NN2C(=O)CSC2c2c(O)ccc3ccccc23)c1 (stereo unspecified) | 87 µM | > 100 µM | 46.4 µM | 51.1 µM | 79.2 µM | > 100 µM | 38.5 µM | – | > 100 µM | – | – | > 100 µM | 80.5 µM
O=C(O)C1CSC2(CCCN(Cc3ccccc3)C2)N1 (stereo unspecified) | > 100 µM | > 100 µM | > 79.6 µM | > 100 µM | > 100 µM | > 100 µM | > 100 µM | – | > 100 µM | – | – | > 100 µM | > 100 µM
O=S(=O)(O)c1cc(N=[N+]([O-])c2ccc(N=Nc3ccccc3)cc2S(=O)(=O)O)ccc1/C=C/c1ccc(N=[N+]([O-])c2ccc(N=Nc3ccccc3)cc2S(=O)(=O)O)cc1S(=O)(=O)O | > 100 µM | > 100 µM | > 100 µM | > 100 µM | > 100 µM | > 100 µM | > 100 µM | – | – | > 100 µM | > 100 µM | – | –
OCC(S)CS.[Bi] (stereo unspecified) | 37.3 µM | > 100 µM | 5.22 µM | 52.2 µM | 28.3 µM | > 100 µM | 44.4 µM | – | 30.6 µM | – | – | 43.2 µM | 31.5 µM
CC1CN=C(c2ccc(CN3CCC(CCCC4CCN(Cc5ccc(C6=NCC(C)N6)cc5)CC4)CC3)cc2)N1 (stereo unspecified) | 71.5 µM | > 100 µM | 67.4 µM | > 100 µM | > 100 µM | > 100 µM | > 100 µM | – | > 100 µM | – | – | 59.7 µM | > 100 µM
Cc1cc(OCc2nnc3n2N=C(c2cc(F)c(Cl)cc2Cl)/C(=C/c2ccc(-c4ccc(Cl)cc4)o2)S3)ccc1Cl | > 50 µM | > 50 µM | > 50 µM | > 50 µM | > 50 µM | > 50 µM | > 50 µM | – | > 50 µM | – | – | > 50 µM | > 50 µM
Clc1ncnc2c1nc(C#Cc1ccccc1)n2C1CCCCO1 (stereo unspecified) | 6.22 µM | 4.04 µM | > 100 µM | 4.15 µM | 4.78 µM | 6.47 µM | 4.02 µM | – | 3.06 µM | – | – | 12.7 µM | 4.55 µM
